{
  "source": "patent US20240391875A1",
  "about": "“ISOQUINOLINONES AND QUINOLINONES AS MODULATORS OF POLRMT” (Pretzel Therapeutics, Inc., priority 2021, published 2024)",
  "data": [
    {"molecular_target": "POLRMT (Homo sapiens, UniProt O00411)", "sequence (O00411 42-1230)": "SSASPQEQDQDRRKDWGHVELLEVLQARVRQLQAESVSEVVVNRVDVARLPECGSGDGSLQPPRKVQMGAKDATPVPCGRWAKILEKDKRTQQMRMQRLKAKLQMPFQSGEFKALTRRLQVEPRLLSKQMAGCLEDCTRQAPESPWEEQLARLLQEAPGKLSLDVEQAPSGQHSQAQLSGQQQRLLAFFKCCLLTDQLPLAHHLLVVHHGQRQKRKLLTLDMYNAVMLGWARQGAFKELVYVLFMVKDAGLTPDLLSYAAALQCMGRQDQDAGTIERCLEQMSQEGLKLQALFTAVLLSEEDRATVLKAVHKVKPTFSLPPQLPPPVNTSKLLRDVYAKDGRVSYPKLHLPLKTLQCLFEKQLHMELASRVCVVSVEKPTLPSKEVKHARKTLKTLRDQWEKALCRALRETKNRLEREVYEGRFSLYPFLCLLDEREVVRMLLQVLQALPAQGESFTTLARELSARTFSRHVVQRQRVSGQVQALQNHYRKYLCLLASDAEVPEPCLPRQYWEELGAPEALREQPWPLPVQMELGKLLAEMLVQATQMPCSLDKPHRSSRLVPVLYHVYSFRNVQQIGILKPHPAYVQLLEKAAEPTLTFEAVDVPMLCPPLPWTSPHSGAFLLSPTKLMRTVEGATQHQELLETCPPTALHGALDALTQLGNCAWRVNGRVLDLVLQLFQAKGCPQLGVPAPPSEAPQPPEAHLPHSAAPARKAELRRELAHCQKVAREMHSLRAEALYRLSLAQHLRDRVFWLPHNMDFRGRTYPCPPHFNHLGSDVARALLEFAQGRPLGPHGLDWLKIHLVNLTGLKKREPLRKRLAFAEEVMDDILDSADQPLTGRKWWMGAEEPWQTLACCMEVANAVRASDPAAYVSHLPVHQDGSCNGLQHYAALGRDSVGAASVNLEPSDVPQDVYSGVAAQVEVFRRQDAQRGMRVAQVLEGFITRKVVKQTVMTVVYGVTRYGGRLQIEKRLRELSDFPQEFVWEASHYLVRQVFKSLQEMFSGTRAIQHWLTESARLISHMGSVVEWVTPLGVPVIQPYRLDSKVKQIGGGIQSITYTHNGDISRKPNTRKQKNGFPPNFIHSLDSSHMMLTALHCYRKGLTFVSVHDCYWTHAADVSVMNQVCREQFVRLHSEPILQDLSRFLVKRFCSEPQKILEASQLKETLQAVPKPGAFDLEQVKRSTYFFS", "test": "homogeneous TR-FRET assay of mitochondrial transcription (inhibition of POLRMT)", "type": "biochemical", "settings": "isoquinolinone compounds (Table 1)", "protocol": "(§1) The inhibitory activity of the compounds of the present invention against POLRMT were determined by assays based on Bergbrede, T., et al., “An adaptable high-throughput technology enabling the identification of specific transcription modulators,” SLAC Discov., 22, 378-386 (2017).\n(§2) The ability of some compounds of the present invention to inhibit POLRMT were determined in a homogeneous TR-FRET Assay using high-throughput screening in a 384-well plate format. This method is used to monitor the activity of mitochondrial transcription through measurement of its product, a 407 bp long RNA transcript. Detection of the product is facilitated by hybridization of two DNA-oligonucleotide probes to specific and adjacent sequences within the RNA product sequence. Upon annealing of the probes, two fluorophores are coupled directly to an acceptor nucleotide probe (ATTO647, 5′), or introduced via a coupled streptavidin with a biotinylated donor nucleotide probe (Europium cryptate) that is brought into sufficient proximity to serve as a fluorescence-donor-acceptor pair. Thus, a FRET signal at 665 nm is generated upon excitation at 340 nm.\n(§3) Proteins used as transcription factors (POLRMT: NP_005026.3, TFAM: NP_003192.1, TFB2M: NP_071761.1) are diluted from their stocks to working concentrations of 1 μM, 20 μM and 4 μM respectively, in a dilution buffer containing 20 mM Tris-HCl (pH 8.0), 200 mM NaCl, 10% (v/v) glycerol, 1 mM Dithiothreitol (DTT), 0.5 mM EDTA.\n(§4) DNA template is a pUC18 plasmid with the mitochondrial light strand promotor sequence (1-477) cloned between HindIII and BamHI sites. The DNA template is restriction linearized proximal to the promotor 3′-end (pUC-LSP).\n(§5) The reaction mixture (10 uL) containing 7.5 nM POLRMT, 15 nM of TFB2M, 30 nM of TFAM, 0.5 nM of DNA template and 500 μM nucleotide triphosphate mix (NTPs) in a reaction buffer (containing 10 mM Tris-HCl (pH 7.5), 10 mM MgCl2, 40 mM NaCl, 10 mM DTT, 0.005% (w/v) Tween-20, 160 units/ml Rnase inhibitor and 0.1 mg/mL BSA) are dispensed to compounds in microplates, using a Thermo Multidrop® dispenser, and incubated at 37° C. in a VWR INCU-Line incubator for 60 minutes after mixing. No nucleotide triphosphate mix is added to negative control samples. Microplates with compounds to be tested in the assay are prepared from 10 mM compound stocks in 100% DMSO, equal amounts of DMSO without any compound are added to positive control and negative control samples.\n(§6) During the incubation, a mix of the detection reagents is prepared in a buffer such that the enzymatic reaction is terminated due to chelating of Mg-ions and increased ionic strength, containing 50 mM Tris-HCl (pH 7.5), 700 mM NaCl, 20 mM EDTA, and 0.010% (w/v) Tween-20. Europium-streptavidin is pre-incubated with a 200-fold molar excess of a random sequence oligonucleotide to block unspecific binding of oligo, for two hours at ambient temperature in the dark. Afterwards, the blocked Europium-streptavidin is kept on ice until use.\n(§7) At the end of the enzymatic reaction time, 5 μL detection oligo mix in the detection buffer is added, and assay plates are mixed and kept at ambient temperature for one hour, protected from light. The concentration of the Acceptor nucleotide oligo (e.g., ATTO647N-5′-[…]-3′) and Donor nucleotide oligo (e.g., bio-5′-AACACATCTCT(-bio)GCCAAACCCCA-bio-3′) in each assay well is 1 nM, and 3 nM, respectively.\n(§8) After incubation with oligo mix, 5 μL of pre-blocked Europium-streptavidin reagent is dispensed to each assay well, assay plates are again mixed and kept at ambient temperature for one hour, protected from light.\n(§9) The generated signal is measured with BMG Pherastar microtiter plate reader with a TRF light unit, using excitation at 340 nm, an integration time of 200 μs, and a delay time of 100 μs, before detection at 620 nm and 665 nm. The ratio of donor- and acceptor-fluorescence is used as a measure of the generated transcript product (i.e. enzymatic activity).", "units": {"IC50": "nM"}, "values": [
      {"compound": "Cc1c(F)cccc1-c1c[nH]c(=O)c2cc(OCC(N)=O)ccc12", "note": "[Example 136, 2-((4-(3-fluoro-2-methylphenyl)-1-oxo-1,2-dihydroisoquinolin-7-yl)oxy)acetamide]", "IC50": 3000},
      {"compound": "Cc1cc(F)cc(C)c1-c1c[nH]c(=O)c2cc(OCC(N)=O)ccc12", "note": "[Example 109, 2-((4-(4-fluoro-2,6-dimethylphenyl)-1-oxo-1,2-dihydroisoquinolin-7-yl)oxy)acetamide]", "IC50": 7000},
      {"compound": "Cc1ccccc1-c1c[nH]c(=O)c2cc(OC(C)C(N)=O)ccc12", "note": "(stereo not shown) [Example 71, 2-((1-oxo-4-(o-tolyl)-1,2-dihydroisoquinolin-7-yl)oxy)propanamide]", "IC50": 1000},
      {"compound": "Cc1ccccc1-c1c[nH]c(=O)c2cc(O[C@H](C)C(=O)N3CCC[C@H](C#N)C3)ccc12", "note": "[Example 77, (S)-1-((R)-2-((1-oxo-4-(o-tolyl)-1,2-dihydroisoquinolin-7-yl)oxy)propanoyl)piperidine-3-carbonitrile]", "IC50": 30},
      {"compound": "C[C@@H](Oc1ccc2c(-c3ccc(F)cc3Cl)c[nH]c(=O)c2c1)C(=O)N1CCS(=O)(=O)CC1", "note": "[Example 101, (R)-4-(2-chloro-4-fluorophenyl)-7-((1-(1,1-dioxidothiomorpholino)-1-oxopropan-2-yl)oxy)isoquinolin-1(2H)-one]", "IC50": 2000},
      {"compound": "Cc1ccccc1-c1c[nH]c(=O)c2cc(NC(C)C(N)=O)ccc12", "note": "(stereo not shown) [Example 69]", "IC50": 12000},
      {"compound": "Cc1ccccc1-c1c[nH]c(=O)c2cc(O[C@H](C)C(=O)N3CC[C@H](C(=O)O)C3)ccc12", "note": "[Example 35, (S)-1-((R)-2-((1-oxo-4-(o-tolyl)-1,2-dihydroisoquinolin-7-yl)oxy)propanoyl)pyrrolidine-3-carboxylic acid]", "IC50": 400},
      {"compound": "Cc1ccccc1-c1c[nH]c(=O)c2cc(OC(C)C(N)=O)ccc12", "note": "(single isomer, unassigned) [Example 72]", "IC50": 17000},
      {"compound": "CC(C#N)Oc1ccc2c(-c3ccccc3Cl)c[nH]c(=O)c2c1", "note": "(single isomer, unassigned) [Example 57, 2-((4-(2-chlorophenyl)-1-oxo-1,2-dihydroisoquinolin-7-yl)oxy)propanenitrile]", "IC50": 300},
      {"compound": "N#CCOc1ccc2c(-c3ccc(F)cc3Cl)c[nH]c(=O)c2c1", "note": "[Example 37, 2-((4-(2-chloro-4-fluorophenyl)-1-oxo-1,2-dihydroisoquinolin-7-yl)oxy)acetonitrile]", "IC50": 900},
      {"compound": "C[C@@H](Oc1ccc2c(-c3ccc(F)cc3Cl)c[nH]c(=O)c2c1)C(=O)N1CCO[C@@H](CO)C1", "note": "[Example 104, 4-(2-chloro-4-fluorophenyl)-7-(((R)-1-((R)-2-(hydroxymethyl)morpholino)-1-oxopropan-2-yl)oxy)isoquinolin-1(2H)-one]", "IC50": 1000},
      {"compound": "CC(C)Oc1ccc2c(-c3ccccc3C#N)c[nH]c(=O)c2c1", "note": "[Example 34, 2-(7-isopropoxy-1-oxo-1,2-dihydroisoquinolin-4-yl)benzonitrile]", "IC50": 14000},
      {"compound": "C[C@@H](Oc1ccc2c(-c3ccc(F)cc3Cl)c[nH]c(=O)c2c1)C(=O)N1CC[S+]([O-])CC1", "note": "[Example 128, (R)-4-(2-chloro-4-fluorophenyl)-7-((1-(1-oxidothiomorpholino)-1-oxopropan-2-yl)oxy)isoquinolin-1(2H)-one]", "IC50": 3000},
      {"compound": "C[C@@H](Oc1ccc2c(-c3ccc(F)cc3Cl)c[nH]c(=O)c2c1)C(=O)N1CCOCC1(C)C", "note": "[Example 107, (R)-4-(2-chloro-4-fluorophenyl)-7-((1-(3,3-dimethylmorpholino)-1-oxopropan-2-yl)oxy)isoquinolin-1(2H)-one]", "IC50": 200},
      {"compound": "C[C@@H](Oc1ccc2c(-c3ccc(F)cc3Cl)c[nH]c(=O)c2c1)C(=O)N1CCOC[C@@H]1C(=O)O", "note": "[Example 115, (R)-4-((R)-2-((4-(2-chloro-4-fluorophenyl)-1-oxo-1,2-dihydroisoquinolin-7-yl)oxy)propanoyl)morpholine-3-carboxylic acid]", "IC50": 400},
      {"compound": "C[C@@H](Oc1ccc2c(-c3ccc(F)cc3Cl)c[nH]c(=O)c2c1)C(=O)N1CCOC[C@H]1C(N)=O", "note": "[Example 123, (S)-4-((R)-2-((4-(2-chloro-4-fluorophenyl)-1-oxo-1,2-dihydroisoquinolin-7-yl)oxy)propanoyl)morpholine-3-carboxamide]", "IC50": 300},
      {"compound": "CCC(=O)N1CCN(C(=O)[C@@H](C)Oc2ccc3c(-c4ccc(F)cc4Cl)c[nH]c(=O)c3c2)CC1", "note": "[Example 117, (R)-4-(2-chloro-4-fluorophenyl)-7-((1-oxo-1-(4-propionylpiperazin-1-yl)propan-2-yl)oxy)isoquinolin-1(2H)-one]", "IC50": 500},
      {"compound": "C[C@H](Oc1ccc2c(-c3ccc(F)cc3Cl)c[nH]c(=O)c2c1)C(=O)N1CCC(C(=O)O)CC1", "note": "[Example 60, (S)-1-(2-((4-(2-chloro-4-fluorophenyl)-1-oxo-1,2-dihydroisoquinolin-7-yl)oxy)propanoyl)piperidine-4-carboxylic acid]", "IC50": 39000},
      {"compound": "CCC(C)Oc1ccc2c(-c3ccccc3C)c[nH]c(=O)c2c1", "note": "(stereo not shown) [Example 5, 7-(sec-butoxy)-4-(o-tolyl)isoquinolin-1(2H)-one]", "IC50": 200},
      {"compound": "C[C@@H](Oc1ccc2c(-c3ccc(F)cc3Cl)c[nH]c(=O)c2c1)C(=O)N1CCS(=N)(=O)CC1", "note": "[Example 139, (R)-4-(2-chloro-4-fluorophenyl)-7-((1-(1-imino-1-oxido-1λ^6-thiomorpholino)-1-oxopropan-2-yl)oxy)isoquinolin-1(2H)-one]", "IC50": 2000},
      {"compound": "C[C@@H](Oc1ccc2c(-c3ccc(F)cc3Cl)c[nH]c(=O)c2c1)C(=O)N1CCC(C(=O)O)CC1", "note": "[Example 64, (R)-1-(2-((4-(2-chloro-4-fluorophenyl)-1-oxo-1,2-dihydroisoquinolin-7-yl)oxy)propanoyl)piperidine-4-carboxylic acid]", "IC50": 50},
      {"compound": "CCc1ccccc1-c1c[nH]c(=O)c2cc(OCC#N)ccc12", "note": "[Example 137, 2-((4-(2-ethylphenyl)-1-oxo-1,2-dihydroisoquinolin-7-yl)oxy)acetonitrile]", "IC50": 300},
      {"compound": "CC(C#N)Oc1ccc2c(-c3ccccc3Cl)c[nH]c(=O)c2c1", "note": "(single isomer, unassigned) [Example 58, 2-((4-(2-chlorophenyl)-1-oxo-1,2-dihydroisoquinolin-7-yl)oxy)propanenitrile]", "IC50": 2000},
      {"compound": "C[C@@H](Oc1ccc2c(-c3ccc(F)cc3Cl)c[nH]c(=O)c2c1)C(=O)N1CCC(F)(F)CC1", "note": "[Example 91, (R)-4-(2-chloro-4-fluorophenyl)-7-((1-(4,4-difluoropiperidin-1-yl)-1-oxopropan-2-yl)oxy)isoquinolin-1(2H)-one]", "IC50": 300}
    ]},
    {"molecular_target": "POLRMT (Homo sapiens, UniProt O00411)", "test": "homogeneous TR-FRET assay of mitochondrial transcription (inhibition of POLRMT)", "type": "biochemical", "settings": "quinolinone compounds (Table 2)", "protocol": "as §1, §2, §3, §4, §5, §6, §7, §8, §9", "units": {"IC50": "nM"}, "values": [
      {"compound": "Cc1cc(F)ccc1-c1cc(=O)[nH]c2cc(OC(C)C)ccc12", "note": "[Example Q3, 4-(4-fluoro-2-methylphenyl)-7-isopropoxy-1H-quinolin-2-one]", "IC50": 4000},
      {"compound": "Cc1ccccc1-c1cc(=O)[nH]c2cc(O[C@H](C)C(=O)N(C)C)ccc12", "note": "(single isomer, unassigned) [Example Q7]", "IC50": 9000},
      {"compound": "Cc1ccccc1-c1cc(=O)[nH]c2cc(O[C@H](C)C(=O)N3CCC[C@H](C(=O)O)C3)ccc12", "note": "[Example Q15, (S)-1-((R)-2-((2-oxo-4-(o-tolyl)-1,2-dihydroquinolin-7-yl)oxy)propanoyl)piperidine-3-carboxylic acid]", "IC50": 7000},
      {"compound": "Cc1ccccc1-c1cc(=O)[nH]c2cc(O[C@H](C)C(=O)N3CCC(C(=O)O)CC3)ccc12", "note": "[Example Q14, (R)-1-(2-((2-oxo-4-(o-tolyl)-1,2-dihydroquinolin-7-yl)oxy)propanoyl)piperidine-4-carboxylic acid]", "IC50": 7000}
    ]}
  ]
}
